Data on eleven molecules can be found in patent publication US20120034210A1, “COMPOSITIONS FOR POTENTIATING APOPOSIS SIGNALS IN TUMOUR CELLS” (INSTITUT BERGONIE, priority 2008, published 2012).

Entries after “also recorded” stand apart in the source; their conditions may differ. Peptide text beside a SMILES is read from it. * marks the point of attachment. Cbz = O=C(OCc1ccccc1)*

Test [1] has as its system DISC macro-complex (Fas/FADD/Caspase-8). In words: DISC formation: Fas immunoprecipitation and Western blot. The settings on record: for recruitment of FADD and DISC formation: non-permeant chelators lowering extracellular calcium. The class given is cell-based, human. As to the method: Cells were incubated with 1 μg/ml APO1-3 for 30 minutes at 4° C. After washing, cells were incubated for 15 minutes at 4° C. (0 minutes) or at 37° C. (15 minutes) and then lysed for 30 minutes at 4° C. in a lysis buffer (25 mM HEPES pH 7.4, 1% Triton X-100, 150 mM NaCl, 2 mM EDTA, a cocktail including protease inhibitors (Sigma)). The lysed cells were then centrifugated for 15 minutes at 15000 rpm in order to eliminate genomic DNA, and the supernatant was kept. The sepharose beads which were coupled with protein A were added to the lysate and the mixture was incubated for 2 hours. The beads were recovered, washed intensively and the immunoprecipitated proteins were re-suspended in a denaturing and reducing buffer (0.01M Tris-HCl pH6.8, 10% glycerol (v/v), 85 mM sodium dodecyl sulfate (SDS), 5% (v/v) […] and 0.005% (w/v) bromophenol blue) then heated at 100° C. for 5 minutes. The samples were deposited in an acrylamide/Bisacrylamide gel and separated by electrophoresis. The proteins were transferred from the gel into a nitrocellulose membrane using a semi-dry medium transfer technique for 2 hours at constant amperage (0.8 mA/cm^2). […] After transfer, the nitrocellulose membrane was saturated with proteins for 30 minutes with a TBST buffer (50 mM Tris pH=8, 0.15M sodium chloride, 0.05% (v/v) Tween-20) containing 5% (w/v) skimmed powdered milk (TBSTM). After washing with TBST, the membrane was incubated for 2 hours with the primary antibody in TBST. The membrane was washed intensively then incubated for one hour with TBST containing the secondary peroxidase-coupled antibody. […] This solution contained a substrate metabolised by peroxidase to yield a luminescent compound, which allowed marking a radiographic film (Amersham).

Test [2] has as its system T and B leukemia/lymphoma cell lines and activated PBLs treated with FasL. In words: Fas/CD95-mediated cell death (MTT test). Format: cell-based, human. The settings on record: for sensitivity to the CD95-mediated apoptotic signal (% cell death): down-modulation of extracellular calcium, T and B-cell lines, vs untreated. Here is the method: 2 to 4.10^4 cells were deposited in wells in a 96-well plate. The cells were incubated, in the presence of the different reactants for the times specified, at 37° C. in a final volume of 100 or 200 μl.
The MTT test enabled to measure the activity of a mitochondrial enzyme, the dehydrogenase succinate which transforms MTT (or 3-(4,5-dimethylthiazol-2-yl)-2,5-diphenyltetrazolium) bromide originally yellow in colour and soluble, into blue formazan crystals, insoluble in aqueous phase. Upon completion of the different treatments, the living cells were quantified by adding in each well 15 μl PBS (Phosphate Buffered Saline) containing 5 mg/ml MTT. […] Spectrophotometric reading of absorbance was done at 570 nm. The measurement of the optical density is directly proportional to the number of living cells and the percentage of cell death was calculated with the following formula: 100-[(DO treated cells/DO non-treated cells)*100].

Test [3] concerns Raji, BL2, Jurkat cell lines and activated PBL. In words: Apoptosis % by loss of mitochondrial membrane potential. The settings on record: for induction of cell death via DR4/DR5 with calcium chelation: BL2 cell line, 24 h, prior incubation 15 minutes BAPTA-AM 1 μM. The class given is cell-based, human. As to the method:
2 to 4.10^4 cells were deposited in wells in a 96-well plate. The cells were incubated, in the presence of the different reactants for the times specified, at 37° C. in a final volume of 100 or 200 μl. The apoptotic cells were identified in the cellular populations by measuring mitochondrial de-polarisation. […] These potentiometric probes allowed monitoring the variations of the mitochondrial membrane potential. […] Following cell treatment with the different drugs, the former were placed in the presence of TMRM or DIOC6 at 10 nM concentration, for 20 minutes at 37° C. then the fluorescence of the cells was analysed by flow cytometry.

Test [4] deals with Raji cells. In words: Raji B lymphoma tumour growth in Rag2-/-γ-/- mice. Format: in vivo. The settings on record: Raji s.c.; single agent; Rituximab 2 mg/kg, Zoledronate 4 mg/kg. Here is the method: The implantation of the tumours was done subcutaneously in Rag2−/−γ−/− mice flank aged from 5 to 7 weeks. Following implantation of the tumours, the mice were divided in groups of 8 to 10 animals for each treatment. The size of the tumour was assessed every day by measuring its width (w) and its length (I). Its volume was calculated according to the formula: V=lw^2/2. At the end of the experiment, the animals were sacrified, the tumour weight was measured.
From 10^6 Raji cells were implanted subcutaneously in mice flank. The effects of Rituximab alone, of Zoledronate alone, are assessed on the growth of tumours. Rituximab (2 mg/kg) was delivered 3 times a week, Zoledronate was delivered 1 time a week.

For test [5], the system named is intracellular calcium concentration. In words: Intracellular Ca2+ concentration, indo-1 (micro)spectrofluorimetry. The class given is cell-based, human. Here is the method: Principle: [Ca^2+]i was measured by microspectrofluorimetry using a calcium sensitive fluorescent probe: indo-1. When excited at 360 nm wavelength, the so-called monoexcitation/double emission indo-1 probe transmitted back in a spectrum ranging from 400 to 500 nm. Binding of Ca^2+ to indo-1 caused displacement of the emission spectrum after excitation. The emission maximum in the unbound form was located around 480 nm. The emission of the complexed form was around 405 nm. An increase of calcium concentration thus caused the emission to increase to 405 nm and the emission to decrease to 480 nm. The ratio of both fluorescence intensities allowed to be independent from the quantity of the probe and to determine the [Ca^2+]i according to the Grynkiewicz equation:
[Ca^2+]i(nM)=Kd.β×(R−Rmin)/(Rmax−R)
Rmax, Rmin and Kd. β were determined by combining electrophysiology (patch clamp) and spectrofluorimetry. Rmax was determined by placing in the patch pipette a medium containing 10 mM CaCl2. Rmin was obtained by placing as an intrapipette solution a calcium-deprived medium (10 mM EGTA).
The cells were then rinsed with HBSS (800 rpm centrifugation for 2 minutes) and placed in an observation chamber on a glass coverslip. […] The excitation light is supplied by a Xenon lamp (100W). […] The substances to be tested were applied using a glass pipette positioned at some twenty μm of the studied cell and connected to a pneumatic system.
The principle as well as the loading of the cells were identical with the measurement on single cells. In such a case, approx. 40,000 cells were placed in a quartz tub under constant agitation. The tub was then placed in a Hitachi spectrofluorimeter whereof the excitation monochromator was set to 350 nm. […] The signals were transmitted to a computer via an analogue/digital converter. So as to be able to apply the Grynkiewicz equation (see above) and translate the fluorescence ratios measured in calcium values, the calibration parameters were entered into the software. The substances to be tested were applied directly in the tube under constant agitation.

In the case of `O=C(O)CN(CC(=O)O)c1ccccc1OCCOc1ccccc1N(CC(=O)O)CC(=O)O` [BAPTA, 1,2-bis(o-aminophenoxy)ethane-N,N,N′,N′-tetraacetic acid], the “recruitment of FADD and DISC formation” value in test [1] (H9 cells, CD95 stimulation) was “enhanced the recruitment of FADD and the DISC formation; also recorded: enhanced recruitment of FADD as well as enhanced DISC formation”. In test [2], the “sensitivity to the CD95-mediated apoptotic signal (% cell death)” value is “increased the sensitivity of T and B-cell lines to the CD95-mediated apoptotic signal”.

On to `O=C(O)CN(CCOCCOCCN(CC(=O)O)CC(=O)O)CC(=O)O` [EGTA, glycol-bis(2-aminoethylether)-N,N,N′,N′-tetraacetic acid], for which the “recruitment of FADD and DISC formation” value in test [1] (H9 cells, CD95 stimulation) was “enhanced the recruitment of FADD and the DISC formation; also recorded: enhanced recruitment of FADD as well as enhanced DISC formation”. The “sensitivity to the CD95-mediated apoptotic signal (% cell death)” value in test [2] was “increased the sensitivity of T and B-cell lines to the CD95-mediated apoptotic signal”.

As for `CC(C)C[C@@H](C=O)NC(=O)[C@H](CC(C)C)NC(=O)[C@H](CC(C)C)NC(=O)OCc1ccccc1` [MG132] (Cbz-Leu-Leu-Leu-aldehyde), the “induction of cell death via DR4/DR5 with calcium chelation” value (shortened to “induction … with calcium chelation”) in test [3] is on record as “potentiated by calcium chelation”.

For `Clc1ccc(C(c2ccc(Cl)cc2)n2cc[n+](CC(OCc3ccc(Cl)cc3Cl)c3ccc(Cl)cc3Cl)c2)cc1` (stereo not shown) [calmidazolium], in test [2] (calmodulin antagonist or CaMKII inhibitory peptide), the “effect on CD95-mediated apoptotic signal” value was “did not alter the CD95-mediated apoptotic signal”.

As to `CNCCC(Oc1ccc(C(F)(F)F)cc1)c1ccccc1` (stereo not shown) [fluoxetine], the “induction … with calcium chelation” value in test [3] was “potentiated by calcium chelation”.

Turning to `C[C@H](CCC(=O)O)C[C@H](C)C[C@H](C)C(=O)/C=C(\O)[C@H](C)C[C@H](C)C/C=C/[C@@H](C)[C@@H](O)[C@@H](C)[C@@H](O)C[C@@H]1CC[C@@](C)([C@H]2CC[C@@](C)([C@@H](C)O)O2)O1` [ionomycine], the “DISC formation / FADD recruitment upon CD95 stimulation” value in test [1] (H9, Jurkat, activated PBTs, non-cytotoxic concentrations, vs untreated cells) is “prevented the recruitment of FADD to CD95 and the DISC formation; also recorded: absence of FADD recruitment and DISC formation”. For the same molecule, the “formation of the DISC macro-complex” value in test [1] (H9 cells, BAPTA-AM 1-10 μM or ionomycine 1 μM pre-incubation, then anti-Fas APO1-3 1 μg/ml 15 min 37° C., vs untreated cells) was “interfered with the formation of the DISC complex”. The “FADD binding and activation of caspase-8” value in test [1] (H9 cells, ionomycine 1 μM, anti-Fas APO1-3) was “decreased the FADD binding and the activation of caspase-8”.

As for `Oc1ccc(C=Cc2cc(O)cc(O)c2)cc1` [resveratrol], the “induction … with calcium chelation” value in test [3] was “potentiated by calcium chelation”.

Regarding `C1CCC[C@H]2CCCN3CC[C@@H](CCCCCC[C@@H]4CCCN5CC[C@@H](CC1)O[C@@H]45)O[C@@H]23` [xestospongin C], the “FADD binding to CD95” value in test [1] (IP3-R antagonist, CD95 stimulation) is on record as “significantly promoted FADD binding to CD95; also recorded: significant increase in FADD binding to CD95”.

On to “Rituximab: anti-CD20 monoclonal antibody”, for which, in test [3] (Raji, defined medium 0.5 mM vs 4 mM calcium), the “death signalling and apoptosis induced by Rituximab in low calcium medium” value is “allowed potentiating the death signalling and apoptosis”. Further, the “cell death signal induced by Rituximab with added extracellular calcium” value in test [3] (Raji, medium 3 mM vs 0.8 mM calcium) was “inhibited the cell death signal”. Also, the “tumour mass vs vehicle” value in test [4] is “not significantly affected”.

B1: CD95L: soluble CD95 ligand (Fas ligand), gp190-CD95L generated by Legembre et al. (protein, UniProt P48023 103-281, looked up)
extracellular domain: QLFHLQKELAELRESTSQMHTASSLEKQIGHPSPPPEKKELRKVAHLTGKSNSRSMPLEWEDTYGIVLLSGVKYKKGGLVINETGLYFVYSKVYFRGQSCNNLPLSHKVYMRNSKYPQDLVMMEGKMMSYCTTGQMWARSSYLGAVFNLTSADHLYVNVSELSLVNFEESQTFFGLYKL
modifications: extracellular domain gp190 fusion
Take B1: the “intracellular calcium peak upon CD95L” value in test [5] (H9 and Jurkat, rapid and transient, basal level 100 to 150 nM) is “up to 700 nM”. Also, in test [5] (Jurkat CD95-Q257K vs parental cell line), the “calcium response to CD95L” value is “the calcium response remained unaltered”. In test [5] (cells devoid of FADD, caspase-8 or caspase-8 and -10), the “increase in [Ca2+]i upon CD95L” value is “did not display any modification of the increase in [Ca^2+]i”.

B2: TRAIL: soluble recombinant human TRAIL (TNF-related Apoptosis-Inducing Ligand), binds DR4 or DR5 (protein, UniProt P50591 39-281, looked up)
extracellular domain: TNELKQMQDKYSKSGIACFLKEDDSYWDPNDEESMNSPCWQVKWQLRQLVRKMILRTSEETISTVQEKQQNISPLVRERGPQRVAAHITGTRGRSNTLSSPNSKNEKALGRKINSWESSRSGHSFLSNLHLRNGELVIHEKGFYYIYSQTYFRFQEEIKENTKNDKQMVQYIYKYTSYPDPILLMKSARNSCWSKDAEYGLYSIYQGGIFELKENDRIFVSVTNEHLIDMDHEASFFGAFLVG
modifications: extracellular domain
Consider B2, for which the “induction … with calcium chelation” value in test [3] was “potentiated by calcium chelation”.
